Consider four molecules from ChEMBL document CHEMBL1127074, “Novel hypotensive agents from Verbesina caracasana. 2. Synthesis and pharmacology of caracasanamide” (1993).

Assay [1] has as its system Rattus norvegicus. The assay is described as follows: Tested for the change in diastolic blood pressure administered at 12 ug/kg intravenously in anesthetized rats. The format is functional, Artery.
Assay [2] has as its system Rattus norvegicus. The assay is described as follows: Tested for the change in systolic blood pressure administered at 12 ug/kg intravenously in anesthetized rats. Format: functional, Artery.
For assay [3], the system named is Rattus norvegicus. The experiment in a line: Tested for change in heart rate administered at 12 uM/kg iv in anesthetized rats. The format is functional.
In assay [4] the test system is Rattus norvegicus. The assay is described as follows: Maximum rate of rise of the left ventricular isovolumetric pressure administered at 12 uM/kg iv in anesthetized rats. Format: functional, Heart left ventricle.
The test system of assay [5] is Rattus norvegicus. The experiment in a line: Tested for the change in systolic blood pressure administered at 25 ug/kg intravenously in anesthetized rats. Format: functional, Artery.
Assay [6] has as its system Rattus norvegicus. The assay is described as follows: Tested for the change in diastolic blood pressure administered at 25 ug/kg intravenously in anesthetized rats. The format is functional, Artery.
Assay [7] deals with Rattus norvegicus. The assay is described as follows: Tested for change in heart rate administered at 25 uM/kg iv in anesthetized rats. Format: functional.
Assay [8] deals with Rattus norvegicus. The experiment in a line: Maximum rate of rise of the left ventricular isovolumetric pressure administered at 25 uM/kg iv in anesthetized rats. The format is functional, Heart left ventricle.
Assay [9] has as its system Rattus norvegicus. The experiment in a line: Tested for the change in diastolic blood pressure administered at 5 ug/kg intravenously in anesthetized rats. The format is functional, Artery.
For assay [10], the system named is Rattus norvegicus. The assay is described as follows: Tested for change in heart rate administered at 5 uM/kg iv in anesthetized rats. The format is functional.
The test system of assay [11] is Rattus norvegicus. The assay is described as follows: Maximum rate of rise of the left ventricular isovolumetric pressure administered at 5 uM/kg iv in anesthetized rats. Format: functional, Heart left ventricle.
The test system of assay [12] is Rattus norvegicus. The assay is described as follows: Tested for the change in systolic blood pressure administered at 5 ug/kg intravenously in anesthetized rats. Format: functional, Artery.
For assay [13], the system named is Rattus norvegicus. The assay is described as follows: Tested for the change in diastolic blood pressure administered at 8 ug/kg intravenously in anesthetized rats. Format: functional, Artery.
In assay [14] the test system is Rattus norvegicus. The experiment in a line: Tested for change in heart rate administered at 8 uM/kg iv in anesthetized rats. Format: functional.
The subject of assay [15] is Rattus norvegicus. The experiment in a line: Maximum rate of rise of the left ventricular isovolumetric pressure administered at 8 uM/kg iv in anesthetized rats. The format is functional, Heart left ventricle.
Assay [16] has as its system Rattus norvegicus. The assay is described as follows: Tested for the change in systolic blood pressure administered at 8 ug/kg intravenously in anesthetized rats. The format is functional, Artery.

For the molecule `C[N+](C)(C)CCCCCC[N+](C)(C)C.[Cl-].[Cl-]` [HEXAMETHONIUM CHLORIDE], the Blood pressure is on record as -34 mmHg in the assay with Rattus norvegicus [1] and -44 mmHg in the assay with Rattus norvegicus [2]. In the assay with Rattus norvegicus [3], the Heart rate was -48 beats min-1. The molecule further showed a dp/dt with Rattus norvegicus [4] of -4040 mmHg s-1.
With `N=C(N)NCCN1CCCCCCC1` [GUANETHIDINE], the Blood pressure with Rattus norvegicus [5] is reported as -27 mmHg; in the assay on Rattus norvegicus [6], -19 mmHg. Also, the Heart rate with Rattus norvegicus [7] was -18 beats min-1. In the assay on Rattus norvegicus [8], the dp/dt is on record as -863 mmHg s-1.
`COc1ccc(Cc2nccc3cc(OC)c(OC)cc23)cc1OC` [PAPAVERINE]: the Blood pressure with Rattus norvegicus [9] is listed as -18 mmHg; in the assay with Rattus norvegicus [12], -23 mmHg. The molecule further returned a Heart rate in the assay with Rattus norvegicus [10] of -21 beats min-1. The dp/dt with Rattus norvegicus [11] is -604 mmHg s-1.
For `COC(=O)[C@H]1[C@H]2C[C@@H]3c4[nH]c5cc(OC)ccc5c4CCN3C[C@H]2C[C@@H](OC(=O)c2cc(OC)c(OC)c(OC)c2)[C@@H]1OC` [RESERPINE], the Blood pressure with Rattus norvegicus [13] is given as -24 mmHg; in the assay with Rattus norvegicus [16], -31 mmHg. The molecule further showed a Heart rate with Rattus norvegicus [14] of -47 beats min-1. In addition, the dp/dt in the assay on Rattus norvegicus [15] is -1580 mmHg s-1.
